Results taken from PubChem BioAssay (NCI).
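Dose response: 5 concentrations. Exposure: 48 h. Format: 96-well plates. Endpoint: linear interpolation; highest concentration if not reached. GI50 marks 50% less growth. TGI is the concentration that stops growth completely.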

Columns and labels:
Assay in all cases: growth of human tumour cells (NCI), 48 h
786-0 renal = system: 786-0 renal
A498 renal = system: A498 renal
A549 NSCLC = system: A549 NSCLC
ACHN renal = system: ACHN renal
BT-549 breast = system: BT-549 breast
CAKI-1 renal = system: CAKI-1 renal
CCRF-CEM leukemia = system: CCRF-CEM leukemia
COLO 205 colon = system: COLO 205 colon
DU-145 prostate = system: DU-145 prostate
EKVX NSCLC = system: EKVX NSCLC
HCC-2998 colon = system: HCC-2998 colon
HCT-116 colon = system: HCT-116 colon
HCT-15 colon = system: HCT-15 colon
HOP-62 NSCLC = system: HOP-62 NSCLC
HOP-92 NSCLC = system: HOP-92 NSCLC
HS 578T breast = system: HS 578T breast
HT29 colon = system: HT29 colon
IGROV1 ovarian = system: IGROV1 ovarian
KM12 colon = system: KM12 colon
LOX IMVI melanoma = system: LOX IMVI melanoma
M14 melanoma = system: M14 melanoma
MALME-3M melanoma = system: MALME-3M melanoma
MCF7 breast = system: MCF7 breast
MDA-MB-231 breast = system: MDA-MB-231 breast
MDA-MB-435 = system: MDA-MB-435
MOLT-4 leukemia = system: MOLT-4 leukemia
NCI-H226 lung = system: NCI-H226 lung
NCI-H23 lung = system: NCI-H23 lung
NCI-H460 lung = system: NCI-H460 lung
NCI-H522 lung = system: NCI-H522 lung
NCI/ADR-RES ovarian = system: NCI/ADR-RES ovarian
OVCAR-3 ovarian = system: OVCAR-3 ovarian
OVCAR-4 ovarian = system: OVCAR-4 ovarian
OVCAR-5 ovarian = system: OVCAR-5 ovarian
OVCAR-8 ovarian = system: OVCAR-8 ovarian
PC-3 prostate = system: PC-3 prostate
RPMI-8226 leukemia = system: RPMI-8226 leukemia
RXF 393 renal = system: RXF 393 renal
SF-268 CNS = system: SF-268 CNS
SF-295 CNS = system: SF-295 CNS
SF-539 CNS = system: SF-539 CNS
SK-MEL-2 melanoma = system: SK-MEL-2 melanoma
SK-MEL-28 melanoma = system: SK-MEL-28 melanoma
SK-OV-3 ovarian = system: SK-OV-3 ovarian
SN12C renal = system: SN12C renal
SNB-19 CNS = system: SNB-19 CNS
SNB-75 CNS = system: SNB-75 CNS
SR leukemia = system: SR leukemia
SW-620 colon = system: SW-620 colon
T-47D breast = system: T-47D breast
TK-10 renal = system: TK-10 renal
U251 CNS = system: U251 CNS
UACC-257 melanoma = system: UACC-257 melanoma
UACC-62 melanoma = system: UACC-62 melanoma
UO-31 renal = system: UO-31 renal

SMILES: N#Cc1c(NCc2ccccc2)nc(NCc2ccccc2)c(C#N)c1-c1cccc(O)c1
- GI50 (786-0 renal): 13 µM
- TGI (786-0 renal): 27.6 µM
- GI50 (A498 renal): 2.01 µM
- TGI (A498 renal): 5.77 µM
- GI50 (A549 NSCLC): 13.3 µM
- TGI (A549 NSCLC): 63.5 µM
- GI50 (ACHN renal): 2.63 µM
- TGI (ACHN renal): 11.7 µM
- GI50 (BT-549 breast): 10.1 µM
- TGI (BT-549 breast): 35.8 µM
- GI50 (CAKI-1 renal): 2.77 µM
- TGI (CAKI-1 renal): 19.4 µM
- GI50 (CCRF-CEM leukemia): 3.38 µM
- TGI (CCRF-CEM leukemia): > 100 µM
- GI50 (COLO 205 colon): 36.7 µM
- TGI (COLO 205 colon): > 100 µM
- GI50 (DU-145 prostate): 12.8 µM
- TGI (DU-145 prostate): 34.4 µM
- GI50 (EKVX NSCLC): 11.6 µM
- TGI (EKVX NSCLC): 45 µM
- GI50 (HCC-2998 colon): 95.5 µM
- TGI (HCC-2998 colon): > 100 µM
- GI50 (HCT-116 colon): 4.48 µM
- TGI (HCT-116 colon): 16.1 µM
- GI50 (HCT-15 colon): 4.33 µM
- TGI (HCT-15 colon): 33.7 µM
- GI50 (HOP-62 NSCLC): 10.5 µM
- TGI (HOP-62 NSCLC): 23.1 µM
- GI50 (HOP-92 NSCLC): 2.51 µM
- TGI (HOP-92 NSCLC): 18.9 µM
- GI50 (HS 578T breast): 3.76 µM
- TGI (HS 578T breast): 20.7 µM
- GI50 (HT29 colon): 41.3 µM
- TGI (HT29 colon): > 100 µM
- GI50 (IGROV1 ovarian): 19.7 µM
- TGI (IGROV1 ovarian): 41.1 µM
- GI50 (KM12 colon): 4.03 µM
- TGI (KM12 colon): > 100 µM
- GI50 (LOX IMVI melanoma): 2.96 µM
- TGI (LOX IMVI melanoma): 11.5 µM
- GI50 (M14 melanoma): 6.65 µM
- TGI (M14 melanoma): > 100 µM
- GI50 (MALME-3M melanoma): 10.1 µM
- TGI (MALME-3M melanoma): 32.5 µM
- GI50 (MCF7 breast): 12.7 µM
- TGI (MCF7 breast): 88.4 µM
- GI50 (MDA-MB-231 breast): 2.23 µM
- TGI (MDA-MB-231 breast): 7.34 µM
- GI50 (MDA-MB-435): 2.91 µM
- TGI (MDA-MB-435): 9.97 µM
- GI50 (MOLT-4 leukemia): 3.3 µM
- TGI (MOLT-4 leukemia): > 100 µM
- GI50 (NCI-H226 lung): 2.91 µM
- TGI (NCI-H226 lung): 7.86 µM
- GI50 (NCI-H23 lung): 11 µM
- TGI (NCI-H23 lung): 37.4 µM
- GI50 (NCI-H460 lung): 14.9 µM
- TGI (NCI-H460 lung): 31.4 µM
- GI50 (NCI-H522 lung): 5.89 µM
- TGI (NCI-H522 lung): 33.1 µM
- GI50 (NCI/ADR-RES ovarian): 13.8 µM
- TGI (NCI/ADR-RES ovarian): 48 µM
- GI50 (OVCAR-3 ovarian): 3.31 µM
- TGI (OVCAR-3 ovarian): 19.4 µM
- GI50 (OVCAR-4 ovarian): 23.6 µM
- TGI (OVCAR-4 ovarian): > 100 µM
- GI50 (OVCAR-5 ovarian): 21.3 µM
- TGI (OVCAR-5 ovarian): 48 µM
- GI50 (OVCAR-8 ovarian): 19.2 µM
- TGI (OVCAR-8 ovarian): 52.2 µM
- GI50 (PC-3 prostate): 4.66 µM
- TGI (PC-3 prostate): 28.8 µM
- GI50 (RPMI-8226 leukemia): 3.11 µM
- TGI (RPMI-8226 leukemia): 22.6 µM
- GI50 (RXF 393 renal): 13.8 µM
- TGI (RXF 393 renal): 34.9 µM
- GI50 (SF-268 CNS): 19.5 µM
- TGI (SF-268 CNS): 46.5 µM
- GI50 (SF-295 CNS): 2.92 µM
- TGI (SF-295 CNS): 13.2 µM
- GI50 (SF-539 CNS): 5.18 µM
- TGI (SF-539 CNS): 22.1 µM
- GI50 (SK-MEL-2 melanoma): 6.23 µM
- TGI (SK-MEL-2 melanoma): 23 µM
- GI50 (SK-MEL-28 melanoma): 61 µM
- TGI (SK-MEL-28 melanoma): > 100 µM
- GI50 (SK-OV-3 ovarian): 7.79 µM
- TGI (SK-OV-3 ovarian): 46.5 µM
- GI50 (SN12C renal): 2.31 µM
- TGI (SN12C renal): 6.69 µM
- GI50 (SNB-19 CNS): 17.1 µM
- TGI (SNB-19 CNS): > 100 µM
- GI50 (SNB-75 CNS): 39.4 µM
- TGI (SNB-75 CNS): > 100 µM
- GI50 (SR leukemia): 2.09 µM
- TGI (SR leukemia): 7.48 µM
- GI50 (SW-620 colon): 4.49 µM
- TGI (SW-620 colon): 68.2 µM
- GI50 (T-47D breast): 4.03 µM
- TGI (T-47D breast): > 100 µM
- GI50 (TK-10 renal): 4.11 µM
- TGI (TK-10 renal): 17.4 µM
- GI50 (U251 CNS): 4.02 µM
- TGI (U251 CNS): 15.4 µM
- GI50 (UACC-257 melanoma): > 100 µM
- TGI (UACC-257 melanoma): > 100 µM
- GI50 (UACC-62 melanoma): 2.1 µM
- TGI (UACC-62 melanoma): 7.04 µM
- GI50 (UO-31 renal): 6.12 µM
- TGI (UO-31 renal): 87.6 µM
